Experiments:
mouse DGAT1 = molecular target: T1, mouse DGAT1 (Mus musculus, UniProt Q9Z2A7); assay: DGAT1 inhibitory effect test (microsome fraction, [14C]-oleoyl-CoA, triglyceride radioactivity by TLC); type: biochemical; conditions: 0.5 h; concentration of the test compound 0.1 μg/ml; mouse DGAT1 microsomes, 23° C., 30 minutes; read-out: Inhibitory ratio
T1 construct: made in house; host or cells: insect cells (High Five, Sf9, Sf21, etc.), baculovirus expression system (Invitrogen)
T1 sequence (Q9Z2A7 1-498): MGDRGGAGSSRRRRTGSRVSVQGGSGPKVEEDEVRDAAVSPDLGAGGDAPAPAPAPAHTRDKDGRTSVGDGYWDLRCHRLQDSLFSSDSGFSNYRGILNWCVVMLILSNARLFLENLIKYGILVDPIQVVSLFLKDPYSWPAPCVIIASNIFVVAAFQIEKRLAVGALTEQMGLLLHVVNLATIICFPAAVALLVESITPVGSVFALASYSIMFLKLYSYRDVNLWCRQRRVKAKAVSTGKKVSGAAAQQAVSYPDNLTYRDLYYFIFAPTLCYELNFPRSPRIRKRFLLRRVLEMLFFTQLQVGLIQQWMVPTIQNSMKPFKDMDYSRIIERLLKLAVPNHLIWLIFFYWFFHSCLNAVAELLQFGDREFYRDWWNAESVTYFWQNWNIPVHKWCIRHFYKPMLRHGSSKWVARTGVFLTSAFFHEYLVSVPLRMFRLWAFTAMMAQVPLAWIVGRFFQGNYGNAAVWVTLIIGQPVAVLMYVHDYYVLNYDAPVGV
Summary of the method: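 Inhibition was scored from radiolabelled triglyceride separated by TLC, relative to vehicle and net of a 0-min background. The reaction ran for 30 min at room temperature (23 °C) in Tris-HCl pH 8.0 with MgCl2, BSA and Triton X-100. Substrates were 30 μM [14C]-oleoyl-CoA and 0.5 mM dioleoylglycerol, with mouse DGAT1 microsomes from baculovirus-infected insect cells as enzyme.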

Row | Compound | inhibition at 0.1 µg/mL (mouse DGAT1) [%] | melting point
1 | COc1ccccc1NC(=O)Nc1ccc(C2=CCN(C(=O)Nc3ccc(OCC(O)CO)cc3Cl)CC2)cc1 (centres unmarked) [Example 286, 4-{4-[3-(2-methoxy-phenyl)-ureido]-phenyl}-3,6-dihydro-2H-pyridine-1-carboxylic acid [2-chloro-4-(2,3-dihydroxy-propoxy)-phenyl]-amide] | ≥ 50 | 103 to 107 °C
2 | COc1cc(NC(=O)Nc2ccc(C3=CCN(C(=O)Nc4ccc(OCC(O)CO)cc4Cl)CC3)cc2)cc(OC)c1 (centres unmarked) [Example 287, 4-{4-[3-(3,5-dimethoxy-phenyl)-ureido]-phenyl}-3,6-dihydro-2H-pyridine-1-carboxylic acid [2-chloro-4-(2,3-dihydroxy-propoxy)-phenyl]-amide] | ≥ 50 | 108 to 111 °C
3 | COc1ccccc1NC(=O)Nc1ccc(C2CCN(C(=O)Nc3ccc(OCC(O)CO)cc3Cl)CC2)cc1 (centres unmarked) [Example 288, 4-{4-[3-(2-methoxy-phenyl)-ureido]-phenyl}-piperidine-1-carboxylic acid [2-chloro-4-(2,3-dihydroxy-propoxy)-phenyl]-amide] | ≥ 50 | 158 to 161 °C
4 | COc1cc(NC(=O)Nc2ccc(C3CCN(C(=O)Nc4ccc(OCC(O)CO)cc4Cl)CC3)cc2)cc(OC)c1 (centres unmarked) [Example 289, 4-{4-[3-(3,5-dimethoxy-phenyl)-ureido]-phenyl}-piperidine-1-carboxylic acid [2-chloro-4-(2,3-dihydroxy-propoxy)-phenyl]-amide] | ≥ 50 | 105 to 108 °C
5 | O=C(Nc1ccc2c(c1)CCN(C(=O)Nc1ccc(OCC(O)CO)cc1Cl)C2)Nc1ccccc1F (centres unmarked) [Example 290, 6-[3-(2-fluoro-phenyl)-ureido]-3,4-dihydro-1H-isoquinoline-2-carboxylic acid [2-chloro-4-(2,3-dihydroxy-propoxy)-phenyl]-amide] | ≥ 50 | 164 to 167 °C
6 | CCOc1cccc(NC(=O)Nc2ccc3c(c2)CCN(C(=O)Nc2ccc(OCC(O)CO)cc2Cl)C3)c1 (centres unmarked) [Example 291, 6-[3-(3-ethoxy-phenyl)-ureido]-3,4-dihydro-1H-isoquinoline-2-carboxylic acid [2-chloro-4-(2,3-dihydroxy-propoxy)-phenyl]-amide] | ≥ 50 | 134 to 139 °C
7 | O=C(Nc1ccc(C2CCN(C(=O)Nc3ccc(OCC(O)CO)cc3Cl)CC2)cc1)Nc1ccccc1F (centres unmarked) [Example 292, 4-{4-[3-(2-fluoro-phenyl)-ureido]-phenyl}-piperidine-1-carboxylic acid [2-chloro-4-(2,3-dihydroxy-propoxy)-phenyl]-amide] | ≥ 50 | 170 to 175 °C
8 | COc1ccc(C)cc1NC(=O)Nc1ccc2c(c1)CCN(C(=O)Nc1ccc(OCC(O)CO)cc1C(F)(F)F)C2 (centres unmarked) [Example 293, 6-[3-(2-methoxy-5-methyl-phenyl)-ureido]-3,4-dihydro-1H-isoquinoline-2-carboxylic acid [4-(2,3-dihydroxy-propoxy)-2-trifluoromethyl-phenyl]-amide] | ≥ 50 | 174 to 176 °C
9 | COc1ccc(C)cc1NC(=O)Nc1ccc(N2CCN(C(=O)Nc3ncccc3C)CC2)cc1 [Example 294, 4-{4-[3-(2-methoxy-5-methyl-phenyl)-ureido]-phenyl}-piperazine-1-carboxylic acid (3-methyl-pyridin-2-yl)-amide] | ≥ 50 | 209 to 211 °C
10 | Cc1cccnc1NC(=O)N1CCN(c2ccc(NC(=O)Nc3ccccc3F)cc2)CC1 [Example 295, 4-{4-[3-(2-fluoro-phenyl)-ureido]-phenyl}-piperazine-1-carboxylic acid (3-methyl-pyridin-2-yl)-amide] | ≥ 50 | > 250 °C (dec.)
11 | COc1ccc(F)cc1NC(=O)Nc1ccc(N2CCN(C(=O)Nc3ncccc3C)CC2)cc1 [Example 296, 4-{4-[3-(5-fluoro-2-methoxy-phenyl)-ureido]-phenyl}-piperazine-1-carboxylic acid (3-methyl-pyridin-2-yl)-amide] | ≥ 50 | 206 to 208 °C
12 | COc1ccc(F)cc1NC(=O)Nc1ccc(N2CCN(C(=O)Nc3ncccc3C)CC2)nc1 [Example 298, 4-{5-[3-(5-fluoro-2-methoxy-phenyl)-ureido]-pyridin-2-yl}-piperazine-1-carboxylic acid (3-methyl-pyridin-2-yl)-amide] | ≥ 50 | 196 to 198 °C
13 | CCOc1ccc(Cl)cc1NC(=O)Nc1ccc(N2CCN(C(=O)Nc3ncccc3C)CC2)nc1 [Example 299, 4-{5-[3-(5-chloro-2-ethoxy-phenyl)-ureido]-pyridin-2-yl}-piperazine-1-carboxylic acid (3-methyl-pyridin-2-yl)-amide] | ≥ 50 | 214 to 215 °C
14 | CCOc1ccc(F)cc1NC(=O)Nc1ccc(N2CCN(C(=O)Nc3ncccc3C)CC2)nc1 [Example 300, 4-{5-[3-(2-ethoxy-5-fluoro-phenyl)-ureido]-pyridin-2-yl}-piperazine-1-carboxylic acid (3-methyl-pyridin-2-yl)-amide] | ≥ 50 | 180 to 185 °C
15 | COc1ccc(C)cc1NC(=O)Nc1ccc(N2CCN(C(=O)Nc3ncccc3C)CC2)nc1 [Example 301, 4-{5-[3-(2-methoxy-5-methyl-phenyl)-ureido]-pyridin-2-yl}-piperazine-1-carboxylic acid (3-methyl-pyridin-2-yl)-amide] | ≥ 50 | 216 to 218 °C
16 | Cc1cccnc1NC(=O)N1CCN(c2ccc(NC(=O)Nc3ccccc3F)cn2)CC1 [Example 302, 4-{5-[3-(2-fluoro-phenyl)-ureido]-pyridin-2-yl}-piperazine-1-carboxylic acid (3-methyl-pyridin-2-yl)-amide] | ≥ 50 | 213 to 215 °C
17 | COc1cccc(NC(=O)Nc2ccc(N3CCN(C(=O)Nc4ncccc4C)CC3)cc2)c1 [Example 303, 4-{4-[3-(3-methoxy-phenyl)-ureido]-phenyl}-piperazine-1-carboxylic acid (3-methyl-pyridin-2-yl)-amide] | ≥ 50 | 191 to 193 °C
18 | CCOc1ccccc1NC(=O)Nc1ccc(N2CCN(C(=O)Nc3ncccc3C)CC2)cc1 [Example 304, 4-{4-[3-(2-ethoxy-phenyl)-ureido]-phenyl}-piperazine-1-carboxylic acid (3-methyl-pyridin-2-yl)-amide] | ≥ 50 | 110 to 112 °C
19 | CCOc1cccc(NC(=O)Nc2ccc(N3CCN(C(=O)Nc4ncccc4C)CC3)cc2)c1 [Example 305, 4-{4-[3-(3-ethoxy-phenyl)-ureido]-phenyl}-piperazine-1-carboxylic acid (3-methyl-pyridin-2-yl)-amide] | ≥ 50 | 171 to 173 °C
20 | COc1cc(NC(=O)Nc2ccc(N3CCN(C(=O)Nc4ncccc4C)CC3)cc2)cc(OC)c1 [Example 306, 4-{4-[3-(3,5-dimethoxy-phenyl)-ureido]-phenyl}-piperazine-1-carboxylic acid (3-methyl-pyridin-2-yl)-amide] | ≥ 50 | 188 to 190 °C
21 | CCOc1ccc(C)cc1NC(=O)Nc1ccc(N2CCN(C(=O)Nc3ncccc3C)CC2)nc1 [Example 307, 4-{5-[3-(2-ethoxy-5-methyl-phenyl)-ureido]-pyridin-2-yl}-piperazine-1-carboxylic acid (3-methyl-pyridin-2-yl)-amide] | ≥ 50 | 198 to 200 °C
22 | COc1ccc(Cl)cc1NC(=O)Nc1ccc(N2CCN(C(=O)Nc3ncccc3C)CC2)nc1 [Example 308, 4-{5-[3-(5-chloro-2-methoxy-phenyl)-ureido]-pyridin-2-yl}-piperazine-1-carboxylic acid (3-methyl-pyridin-2-yl)-amide] | ≥ 50 | 203 to 205 °C
23 | COc1ccccc1NC(=O)Nc1ccc(N2CCN(C(=O)Nc3ncccc3C)CC2)cc1 [Example 309, 4-{4-[3-(2-methoxy-phenyl)-ureido]-phenyl}-piperazine-1-carboxylic acid (3-methyl-pyridin-2-yl)-amide] | ≥ 50 | 207 to 209 °C
24 | COc1ccc(Cl)cc1NC(=O)Nc1ccc(N2CCN(C(=O)Nc3ncccc3C)CC2)cc1 [Example 310, 4-{4-[3-(5-chloro-2-methoxy-phenyl)-ureido]-phenyl}-piperazine-1-carboxylic acid (3-methyl-pyridin-2-yl)-amide] | ≥ 50 | 163 to 165 °C
25 | CCOc1ccc(C)cc1NC(=O)Nc1ccc(N2CCN(C(=O)Nc3ncccc3C)CC2)cc1 [Example 311, 4-{4-[3-(2-ethoxy-5-methyl-phenyl)-ureido]-phenyl}-piperazine-1-carboxylic acid (3-methyl-pyridin-2-yl)-amide] | ≥ 50 | 206 to 208 °C
